Laboratory results as given in publication PMC10269895 (Microbiology Spectrum, 2023).
In brackets after ≈: the same amount, converted by molar mass. Read-outs that look alike come from different tables or passages of the source.

Experiments:
[1] = Solubility in phosphate buffer (pH 7.4); type: physicochemical
Procedure: (i) Solubility in phosphate buffer (pH 7.4). For calibration, approximately 2 mg of GE81112A was weighed into a HPLC glass vial. DMSO was added to reach a target concentration of 2 mg/mL. Dilutions for calibration (10 μg/mL, 50 μg/mL, and 100 μg/mL) were prepared by adding adjusted volumes of DMSO and were correlated with ultraperformance liquid chromatography (UPLC)-UV peak areas at 220 nm. For solubility determinations, 2 mg of GE81112A was weighed into a HPLC glass vial. Phosphate buffer (pH 7.4) was added to reach a target concentration of 2 mg/mL. The vial was shaken for 16 h at 25°C, with protection from light, on an Eppendorf thermomixer at 600 rpm, followed by centrifugation at 10,000 rpm for 5 min at 25°C and filtration through a 0.45-μm filter. The filtrated supernatant was analyzed (UPLC-UV, λ = 220 nm), and the concentration of the analyte in the filtrate was calculated based on the peak area/real concentration ratio from previous calibration runs.

[2] = Hepatic in vitro CLint in primary plated hepatocytes; type: in vitro ADME, human
Procedure: For hepatic in vitro CLint studies, primary cultures of cryopreserved human or animal species hepatocytes were seeded at a density of 200,000 cells per well and cultured overnight in collagen-coated 48-well plates in modified Ham’s F-12/William’s E medium. Disappearance kinetics of 5 μM GE81112A were sampled over a 24-h period. Dextromethorphan, midazolam, phenacetin, and tolbutamide (5 μM each) were used as reference compounds. Acetonitrile was used to terminate the incubation, and samples were centrifuged at 2,000 × g for 10 min after the addition of an appropriate internal standard. Supernatants were separated by LC using an AERIS peptide XB-C18 column (3.6 μm, 50 by 2.1 mm; Phenomenex, Aschaffenburg, Germany) with the following gradient of buffer A (water) and buffer B (acetonitrile): 0 to 5 min, 95% buffer A; 20 to 25 min, 5% buffer A. Both solvents were supplemented with 0.1% formic acid. The remaining parent peptide was quantified by LC-MS/MS using a Q Exactive hybrid quadrupole-Orbitrap device (Thermo Fisher Scientific). In vitro hepatic CLint was calculated as dose/area under the concentration-time curve from 0 to 24 h (AUC0–24), where dose is the concentration of GE81112A determined in the time zero sample and classified using reference compounds for low, moderate, or high CLint.

E. coli ATCC BAA-2471 = details: NDM-1 strain
Procedure: (§1) MICs were determined by adapting the protocol from CLSI guidelines (Table 1; [15]). Briefly, from an overnight preculture, 49.2 μL of an inoculum of 5 × 10^5 CFU/mL in MH broth or DMEM was dispensed into 384-well plates, and 0.8 μL of compounds solubilized in dimethyl sulfoxide (DMSO) and serially diluted was added to the bacterial cultures. […] MICs were determined by measurement of the optical density at 600 nm (OD600). The experiments were performed in duplicate. Commercially available strains were obtained from the American Type Culture Collection (ATCC), the German Collection of Microorganisms and Cell Cultures (DSMZ), and the Biological Resource Center of Institut Pasteur (CRBIP).

[3] = test system: K. pneumoniae ATCC BAA-2342; details: KPC strain
Procedure: as §1

[4] = test system: PDE3A, acetylcholinesterase, MAO-A, Na+/K+-ATPase; details: 0.01 mM
Procedure: The targets were human recombinant proteins unless a different species is stated. All tests were conducted at a peptide concentration of 0.01 mM according to CEREP procedures.
Pharmacological off-target profiling was conducted by CEREP (Celle-Le’vescault, France) to investigate inhibitory effects against the targets specified in Fig. 3 and 4. […] We selected 19 G-protein-coupled receptors (acetylcholine, adenosine, androgens, cannabinoids, dopamine, histamine, opioids, and serotonin), eight ion channels (Gly, nicotinic acetylcholine receptor [nAChR], phencyclidine [PCP], Cav1.2, Kv, SKCa, and γ-aminobutyric acid-gated chloride channels [GABACl]), two transporters (dopamine transporter [DAT] and noradrenaline transporter [NET]), and four enzymes (phosphodiesterase [PDE], acetylcholinesterase, monoamine oxidase (MAO), and Na^+/K^+-ATPase) for testing.

[5] = Metabolic stability in liver microsomes; type: in vitro ADME; details: 5 μM
Procedure: Microsomal preparations from human and animal species were used at a protein concentration of 1 mg/mL, and the cofactor NADPH was added to a final concentration of 1 mM to assay for CYP and flavin-containing monooxygenase (FMO) lability. GE81112A at 5 μM was incubated for 20 min at 37°C. The enzymatic reaction was initiated by a rapid temperature increase in a water bath at 37°C. It was stopped by a rapid temperature decrease in an ice bath at 0°C and subsequent addition of 5 volumes of precooled acetonitrile (500 μL). Loss of parent GE81112A concentration, as a percentage, was determined using LC-MS/MS measurements, where 100% was the measurement at time zero.

[6] = In vivo tolerability study in uninfected mice; design: species or system Swiss mice; details: 30 mg/kg single i.v. bolus in NaCl (0.9%)
Procedure: We first performed a tolerability study in uninfected mice by injecting GE81112A at up to 30 mg/kg, formulated in NaCl (0.9%), via intravenous (i.v.) bolus administration.
All animal studies were performed in accordance with relevant guidelines and regulations. A 30 mg/kg dose of GE81112A, formulated in 0.9% NaCl, was administered to noninfected Swiss mice (n = 3), using a single i.v. bolus. Adverse events and animal weights were monitored for 24 h after administration.

primary rat hepatocytes = assay: Cytotoxicity (CellTiter-Glo ATP and neutral red uptake); type: cell-based
Procedure: (§2) The toxicity of GE81112A toward human hepatocellular carcinoma HepG2 HB-8065 (ATCC) cells and freshly isolated primary Sprague-Dawley rat hepatocytes (Charles River) was assessed by using the CellTiter-Glo ATP-monitoring kit (Promega) and by quantifying the ability to store the dye neutral red (neutral red uptake [NRU] solution; Sigma-Aldrich, St. Louis, MO, USA). The assay was conducted in 96-well microtiter plates in a test volume of 200 μL. GE81112A was tested in an 8-fold 1:2 dilution series with a final concentration range of […]. HepG2 cells or primary hepatocytes were maintained at 37°C in 5% CO2 in DMEM-F-12 medium containing 1% nonessential amino acids, 1% sodium pyruvate, and 10% heat-inactivated FCS. Prior to each test, 100 μL of culture medium was added to each well (each containing about 20,000 cells), and the plates were incubated for 16 h as described above. GE81112A was diluted in culture medium to obtain appropriate concentrations and was added to the wells as six replicates. […] After incubation for 24 h as described above, cell viability was calculated either by cell lysis and subsequent luminometric quantification of the ATP concentration in each sample or by measurement of the amount of neutral red taken up by the cells. NRU was measured at 540 nm (Tecan Genios Pro) after 3 h of incubation with NRU solution and subsequent cell lysis. […]

HepG2 cells = assay: as above; type: cell-based, human; details: 24 h; highest concentration with cell viability of >80%
Procedure: as §2

With NC(=O)OC[C@@H](O)C[C@H](NC(=O)[C@H]1NCCC[C@H]1O)C(=O)N[C@@H](Cc1c[nH]cn1)C(=O)N[C@H](C(=O)O)[C@H](O)c1cnc(Cl)[nH]1 [GE81112A] the solubility at 16 h [1] was over 500 µg/mL, the “Intrinsic clearance (CLint)” value ([2]; 5 μM, classified as low) was 0.01 mL/(h × 1 million cells) and the “Directly glucuronic acid-conjugated metabolites” value ([2]; human primary plated hepatocytes) was “not observed”. For the same compound, the MIC (E. coli ATCC BAA-2471; DMEM) was 4 µg/mL (≈ 6.21 µM), the MIC (E. coli ATCC BAA-2471; MHII) was over 64 µg/mL and the MIC ([3]; DMEM) was over 64 µg/mL. The MIC ([3]; MHII) was over 64 µg/mL, the “Off-target inhibitory effects, enzyme and uptake assays” value [4] was “no critical inhibiting effect” and the Oxidative metabolic lability ([5]; human liver microsomes) was “low”. For the same compound, the Oxidative metabolic lability ([5]; mouse liver microsomes) was “low”, the Oxidative metabolic lability ([5]; rat liver microsomes) was “low” and the “Tolerability (signs of toxicity or adverse effects)” value [6] was “did not show any sign of toxicity or adverse effects”. The “No observed effect concentration (NOEC)” value (primary rat hepatocytes; 24 h, highest concentration with cell viability of >80%) was 15.6 µM, the “Overview finding: Cytotoxicity (rat hepatocytes/HepG2 cells)” value (primary rat hepatocytes; Table 3 summary rating) was “+/− (to be monitored)” and the “No observed effect concentration (NOEC)” value (HepG2 cells) was 15.6 µM.
